Experimental data reported in the NIST ThermoML archive (doi:10.1016/j.tca.2013.07.012).

Experiment: xn = mol fraction of the nth substance listed
Settings: 101 kPa, Liquid, Vibrating tube method

OCC(O)CO [glycerol] + O
mass density [kg/m3]
Settings | 298.15 K | 308.15 K | 323.15 K
x1 = 0.00209 | – | 996.42 | 990.39
x1 = 0.00439 | 1002.17 | 999.06 | 992.99
x1 = 0.0051 | 1002.98 | 999.87 | 993.77
x1 = 0.00657 | 1004.67 | 1001.52 | 995.4
x1 = 0.01072 | 1009.34 | 1006.11 | 999.9
x1 = 0.01633 | 1015.48 | 1012.13 | 1005.81
x1 = 0.03504 | 1034.47 | 1030.74 | 1024.15
x1 = 0.05086 | 1049.05 | 1045.04 | 1038.23
x1 = 0.06775 | 1063.23 | 1058.94 | 1051.86
x1 = 0.1127 | 1095.24 | 1090.4 | 1082.82
x1 = 0.1559 | 1119.87 | 1114.62 | 1106.34
x1 = 0.206 | 1142.86 | 1137.3 | 1128.58
x1 = 0.256 | 1161.34 | 1155.48 | 1146.57
x1 = 0.3311 | 1183 | 1177.16 | 1168.09
x1 = 0.4012 | 1198.45 | 1192.55 | –
x1 = 0.4907 | 1213.75 | 1207.7 | –
x1 = 0.5828 | 1225.65 | 1219.6 | –
x1 = 0.6857 | 1236.32 | 1230.18 | –
x1 = 0.7494 | 1241.81 | 1235.6 | –
x1 = 0.8101 | 1246.48 | 1240.19 | –
x1 = 0.8528 | 1249.4 | 1243.15 | –
x1 = 0.882 | 1251.36 | 1245.07 | –
x1 = 0.9143 | 1253.31 | 1247.06 | –
x1 = 0.9408 | 1254.8 | 1248.55 | –
x1 = 0.9578 | 1255.73 | 1249.47 | –
x1 = 0.9792 | 1256.89 | 1250.63 | –
x1 = 0.9895 | 1257.41 | 1251.16 | –
x1 = 1 | 1257.91 | 1251.66 | –
